Laboratory results reported in patent US20130116287A1 (priority 2010, published 2013).
“And” between values parts separate entries of the source, which are not always exact repeats. Equal entries are not always repeated.

Key:
[1] = Measurement of logP values by HPLC on reversed phase columns (EEC directive 79/831 Annex V.A8); format: physicochemical; details: HPLC; for Log P [I1] main isomer / Log P [I2] minor isomer / Log P (two values printed, isomers not assigned): pH 2.7, 0.1% formic acid; for Log P (two values printed, isomers not assigned): two values without isomer tag; for Log P: pH 2.7, 0.1% formic acid in water / acetonitrile, single value
Phytophthora infestans = format: in vivo; details: 500 ppm of active ingredient; tomato, preventive; evaluated 7 days after inoculation; 100% = no disease

SMILES | Log P [I1] main isomer [1] | Log P [I2] minor isomer [1] | efficacy (Phytophthora infestans) | Log P (two values printed, isomers not assigned) [1] | Log P [1]
Cc1snnc1C(=NOCc1csc(NC(=O)C(F)(F)Oc2ccccc2)n1)c1ccccc1 (mixture of isomers) [Example 1] | 4.25 | 4.15 | 100% | – | –
Cc1snnc1C(=NOCc1csc(NC(=O)CSc2ccccc2)n1)c1ccccc1 (mixture of isomers) [Example 5] | 3.89 | 3.78 | 95% | – | –
Cc1snnc1C(=NOCc1cccc(NC(=O)COc2ccccc2)n1)c1ccccc1 (mixture of isomers) [Example 9] | 4.14 | 4.01 | 95% | – | –
CC(=O)OCC(=O)Nc1nc(CON=C(c2ccccc2)c2nnsc2C)cs1 (mixture of isomers) [Example 11] | 2.78 | 2.68 | – | – | –
CC(=O)OCC(=O)Nc1cccc(CON=C(c2ccccc2)c2nnsc2C)n1 (mixture of isomers) [Example 12] | 2.93 | 2.82 | 70% | – | –
Cc1snnc1C(=NOCc1cccc(NC(=O)COCc2ccccc2)n1)c1ccccc1 (mixture of isomers) [Example 29] | 4.34 | – | 93% | – | –
Cc1snnc1C(=NOCc1csc(NC(=O)COc2ccccc2Cl)n1)c1ccccc1 (mixture of isomers) [Example 31] | 4.19 | 4.06 | 95% | – | –
Cc1snnc1C(=NOCc1cccc(NC(=O)COc2ccccc2Cl)n1)c1ccccc1 (mixture of isomers) [Example 32] | 4.61 | 4.49 | 93% | – | –
Cc1snnc1C(=NOCc1csc(NC(=O)COc2ccc(Cl)cc2)n1)c1ccccc1 (mixture of isomers) [Example 33] | – | – | 100% | 4.09 | –
Cc1snnc1C(=NOCc1cccc(NC(=O)COc2ccc(Cl)cc2)n1)c1ccccc1 (mixture of isomers) [Example 35] | 4.51 | – | 95% | – | –
Cc1snnc1C(=NOCc1csc(NC(=O)COc2cccc(Cl)c2)n1)c1ccccc1 (mixture of isomers) [Example 41] | – | – | 100% | 4.24 and 4.11 | –
Cc1snnc1C(=NOCc1cccc(NC(=O)COc2cccc(Cl)c2)n1)c1ccccc1 (mixture of isomers) [Example 43] | 4.53 | 4.41 | – | – | –
COc1ccccc1OCC(=O)Nc1cccc(CON=C(c2ccccc2)c2nnsc2C)n1 (mixture of isomers) [Example 58] | 4.24 | 4.11 | 95% | – | –
CC(=O)OC(C)(C)C(=O)Nc1nc(CON=C(c2ccccc2)c2nnsc2C)cs1 (mixture of isomers) [Example 100] | 3.35 | 3.25 | 95% | – | –
CC(=O)OC(C)(C)C(=O)Nc1cccc(CON=C(c2ccccc2)c2nnsc2C)n1 (mixture of isomers) [Example 101] | 3.48 | 3.35 | 95% | – | –
Cc1snnc1C(=NOCc1cccc(NC(=O)COCCC(C)C)n1)c1ccccc1 [Example 4] | – | – | 93% | – | –
Cc1snnc1C(=NOCc1cccc(NC(=O)COc2ccccc2)n1)c1ccccc1 [Example 10] | – | – | 98% | – | 4.11
C#CCOC(C)C(=O)Nc1nc(CON=C(c2ccccc2)c2nnsc2C)cs1 (centres unmarked) [Example 13] | – | – | 100% | – | 3.29
C#CCOC(C)C(=O)Nc1cccc(CON=C(c2ccccc2)c2nnsc2C)n1 (centres unmarked) [Example 14] | – | – | 100% | – | 3.58
Cc1snnc1C(=NOCc1cccc(NC(=O)C(C)Oc2ccccc2)n1)c1ccccc1 (centres unmarked) [Example 16] | – | – | 100% | – | 4.41
Cc1snnc1C(=NOCc1csc(NC(=O)COCC2CC2)n1)c1ccccc1 [Example 17] | – | – | 97% | – | 3.53

SMILES | Log P [I1] main isomer [1] | Log P [I2] minor isomer [1] | efficacy (Phytophthora infestans) | Log P (two values printed, isomers not assigned) [1] | Log P [1]
Cc1snnc1C(=NOCc1cccc(NC(=O)COCC2CC2)n1)c1ccccc1 [Example 18] | – | – | 100% | – | 3.92
C=CCCOC(C)C(=O)Nc1nc(CON=C(c2ccccc2)c2nnsc2C)cs1 (centres unmarked) [Example 19] | – | – | 98% | – | 3.99
C=CCCOC(C)C(=O)Nc1cccc(CON=C(c2ccccc2)c2nnsc2C)n1 (centres unmarked) [Example 20] | – | – | 95% | – | 4.36
CCCCOCC(=O)Nc1nc(CON=C(c2ccccc2)c2nnsc2C)cs1 [Example 21] | – | – | 93% | – | 3.99
CCCCOCC(=O)Nc1cccc(CON=C(c2ccccc2)c2nnsc2C)n1 [Example 22] | – | – | 95% | – | 4.41
Cc1snnc1C(=NOCc1cccc(NC(=O)COC2CCCC2)n1)c1ccccc1 [Example 24] | – | – | 95% | – | 4.51
C=CCOC(C)C(=O)Nc1cccc(CON=C(c2ccccc2)c2nnsc2C)n1 (centres unmarked) [Example 26] | – | – | 95% | – | 3.94
Cc1snnc1C(=NOCc1cccc(NC(=O)COCc2ccccc2)n1)c1ccccc1 [Example 30] | – | – | 95% | – | 4.29
Cc1snnc1C(=NOCc1csc(NC(=O)COc2ccc(Cl)cc2)n1)c1ccccc1 [Example 34] | – | – | 100% | – | 4.19
Cc1snnc1C(=NOCc1cccc(NC(=O)COc2ccc(Cl)cc2)n1)c1ccccc1 [Example 36] | – | – | 100% | – | 4.49
C=CCCOCC(=O)Nc1nc(CON=C(c2ccccc2)c2nnsc2C)cs1 [Example 37] | – | – | 98% | – | 3.68
C=CCCOCC(=O)Nc1cccc(CON=C(c2ccccc2)c2nnsc2C)n1 [Example 38] | – | – | 100% | – | 3.99
Cc1snnc1C(=NOCc1cccc(NC(=O)C(C)OCC2CC2)n1)c1ccccc1 (centres unmarked) [Example 40] | – | – | 97% | – | –
Cc1snnc1C(=NOCc1csc(NC(=O)COc2cccc(Cl)c2)n1)c1ccccc1 [Example 42] | – | – | 100% | – | 4.19
Cc1snnc1C(=NOCc1csc(NC(=O)COc2ccc(I)cc2)n1)c1ccccc1 [Example 45] | – | – | 100% | – | 4.44
Cc1snnc1C(=NOCc1cccc(NC(=O)COc2ccc(I)cc2)n1)c1ccccc1 [Example 46] | – | – | 100% | – | –
C#CCOCC(=O)Nc1nc(CON=C(c2ccccc2)c2nnsc2C)cs1 [Example 47] | – | – | 95% | – | 3.04
C#CCOCC(=O)Nc1cccc(CON=C(c2ccccc2)c2nnsc2C)n1 [Example 48] | – | – | 100% | – | 3.29
Cc1snnc1C(=NOCc1csc(NC(=O)C(C)OCCC(C)C)n1)c1ccccc1 (centres unmarked) [Example 49] | – | – | 98% | – | 4.68
Cc1snnc1C(=NOCc1cccc(NC(=O)C(C)OCCC(C)C)n1)c1ccccc1 (centres unmarked) [Example 50] | – | – | 97% | – | 5.11
Cc1snnc1C(=NOCc1csc(NC(=O)CSCCc2ccccc2)n1)c1ccccc1 [Example 51] | – | – | – | – | 4.24

SMILES | Log P [I1] main isomer [1] | Log P [I2] minor isomer [1] | efficacy (Phytophthora infestans) | Log P (two values printed, isomers not assigned) [1] | Log P [1]
Cc1snnc1C(=NOCc1cccc(NC(=O)CSCCc2ccccc2)n1)c1ccccc1 [Example 52] | – | – | 97% | – | 4.53
Cc1snnc1C(=NOCc1cccc(NC(=O)COCC2CCC2)n1)c1ccccc1 [Example 54] | – | – | 97% | – | 4.54
Cc1snnc1C(=NOCc1csc(NC(=O)C(C)OC2CCCCC2)n1)c1ccccc1 (centres unmarked) [Example 55] | – | – | 98% | – | 4.76
Cc1snnc1C(=NOCc1cccc(NC(=O)C(C)OC2CCCCC2)n1)c1ccccc1 (centres unmarked) [Example 56] | – | – | 98% | – | 5.22
Cc1snnc1C(=NOCc1cccc(NC(=O)COC2CCCCC2)n1)c1ccccc1 [Example 60] | – | – | 95% | – | 4.91
CCOC(C)(C)C(=O)Nc1nc(CON=C(c2ccccc2)c2nnsc2C)cs1 [Example 61] | – | – | 100% | – | 3.94
CCOC(C)(C)C(=O)Nc1cccc(CON=C(c2ccccc2)c2nnsc2C)n1 [Example 62] | – | – | 95% | – | 4.34
Cc1snnc1C(=NOCc1cccc(NC(=O)COCC(C)C)n1)c1ccccc1 [Example 64] | – | – | 98% | – | 4.44
Cc1snnc1C(=NOCc1cccc(NC(=O)COC(C)C)n1)c1ccccc1 [Example 66] | – | – | 93% | – | 3.94
Cc1snnc1C(=NOCc1csc(NC(=O)CSCCC(C)C)n1)c1ccccc1 [Example 67] | – | – | 95% | – | 4.41
Cc1snnc1C(=NOCc1cccc(NC(=O)CSCCC(C)C)n1)c1ccccc1 [Example 68] | – | – | 95% | – | –
Cc1snnc1C(=NOCc1csc(NC(=O)COCC2CCCCC2)n1)c1ccccc1 [Example 69] | – | – | 97% | – | 4.93
Cc1snnc1C(=NOCc1cccc(NC(=O)COCC2CCCCC2)n1)c1ccccc1 [Example 70] | – | – | 89% | – | 5.45
Cc1snnc1C(=NOCc1csc(NC(=O)COCC2CCCCO2)n1)c1ccccc1 (centres unmarked) [Example 71] | – | – | 90% | – | 3.76
Cc1snnc1C(=NOCc1cccc(NC(=O)COCC2CCCCO2)n1)c1ccccc1 (centres unmarked) [Example 72] | – | – | 75% | – | 3.92
Cc1snnc1C(=NOCc1cccc(NC(=O)C(C)Oc2ccc(F)cc2)n1)c1ccccc1 (centres unmarked) [Example 96] | – | – | 97% | – | –
CCCCOC(C)C(=O)Nc1cccc(CON=C(c2ccccc2)c2nnsc2C)n1 (centres unmarked) [Example 97] | – | – | 97% | – | –
Cc1snnc1C(=NOCc1csc(NC(=O)C(C)OCC2CCC2)n1)c1ccccc1 (centres unmarked) [Example 110] | – | – | – | – | 4.49
Cc1snnc1C(=NOCc1cccc(NC(=O)C(C)OCC2CCC2)n1)c1ccccc1 (centres unmarked) [Example 111] | – | – | – | – | 4.93
